Results published in patent US11642344B2, “Cholesteryl ester transfer protein (CETP) inhibitor and pharmaceutical compositions comprising said inhibitor for use in the treatment or prevention of cardiovascular diseases” (NewAmsterdam Pharma B.V., priority 2014, dated 2023).

How the values were obtained:
[1] = test system: HDL-C, LDL-C, total cholesterol, triglycerides; test: Clinical repeated dose study: HDL-C, LDL-C, total cholesterol, triglycerides and secondary lipid variables; format: in vivo, human; conditions: for Maximum % change from baseline in HDL-C concentration / Maximum % change from baseline in LDL-C concentration / Maximum % change from baseline in Total cholesterol / Maximum % change from baseline in Triglycerides: repeated oral doses, steady state, mean
Procedure: (§1) The clinical study was a repeated dose study in 5 groups of Caucasian male subjects aged 18 to 55 years. Each subject received a single oral dose of Compound A/placebo on Day 1, followed by once daily doses on Days 8 to 35 (5 mg Compound A/placebo—Group 1) or Days 8 to 28 (1, 2.5, 10 and 25 mg Compound A/placebo—Groups 2 to 5). All doses were administered at the study center after a standard breakfast. Subjects in each dose group were allocated to study treatment in a ratio of 10 Compound A to 2 placebo. Blood samples for pharmacokinetic and pharmacodynamic (CETP activity, CETP concentration, HDL-C, LDL-C, total cholesterol, triglycerides) assessments were collected from prior to each dose and at intervals throughout the study until 336 hours after the last dose. Secondary pharmacodynamic endpoints (including apolipoproteins A1, A2, B, and E, HDL2-C, HDL3-C, phospholipids, HDL-free cholesterol [HDL-FC], HDL-cholesteryl ester [HDL-CE], HDL-phospholipids [HDL-PL], HDL-triglycerides [HDL-TG], and LDL particle size) were measured at intervals until the last day of dosing. Urine was collected for pharmacokinetics from pre dose and at intervals up to 72 hours after the first and last dose. Safety assessments including adverse events, blood pressure and pulse rate, ECGs, laboratory safety tests (including aldosterone) and physical examinations were conducted throughout both studies.
(§2) Plasma and urine concentrations of Compound A were determined using validated liquid chromatography with tandem mass spectrometry (LC/MS/MS) methods. The lower limit of quantification (LLQ) for both assays was 0.500 ng/mL. Plasma concentration of CETP was determined using a validated enzyme-linked immunosorbent assay (ELISA) method with a lower limit of quantification (LLQ) of 0.500 μg/mL. CETP activity was determined as the rate of [^3H]-labeled CE transfer from donor HDL to acceptor VLDL/LDL. [^3H]CE-labeled HDL was added to human plasma and incubated for 4 hours at 37° C. Non-HDL lipoproteins were precipitated and separated from HDL, and the amount of radioactivity in the supernatant was quantitated. CETP activity was determined as the difference of the radioactivity between the samples incubated at 37° C. and 4° C. HDL-C and LDL-C were measured by homogenous enzymatic colorimetric assay using a Modular analyser (Roche Diagnostics). Total cholesterol and triglycerides were measured by homogenous enzymatic assay using a Modular analyser (cholesterol oxidase peroxidase-peroxidase aminophenazone phenol [CHOP-PAP]) method and a glycerol phosphate oxidase [GPO-PAP] method, respectively. ApoA1, ApoA2, ApoB and ApoE were measured by immunoturbidimetry using reagents from Rolf Greiner Biochemica (Germany) and N-apoprotein standard serum from Siemens (Germany). LDL particle size was determined by gradient gel electrophoresis. HDL fraction was separated by a combined ultracentrifugation-precipitation method (Beta-quantification). HDL-2 and HDL-3 fractions were then separated by further ultracentrifugation. Total-cholesterol in HDL, HDL-2 and HLD-3 fractions, free cholesterol in HDL fraction, triglycerides in HDL fraction and phospholipids in plasma and HDL-fraction were measured using enzymatic methods and reagents from Diasys Diagnostics (Germany). The measurements were performed on an Olympus AU600 automatic analyzer and were calibrated using secondary standards from Roche Diagnostics (Total-cholesterol, triglycerides) and Diasys Diagnostics (free cholesterol, phospholipids), respectively. Esterified cholesterol was calculated as the difference between total-cholesterol and free cholesterol.
(§3) The sample sizes for the study were chosen based on practical considerations rather than statistical power. The numbers of subjects in each group were considered to be adequate to assess the main objectives of each study. Subjects were allocated to Compound A or placebo in each group by means of a computer-generated randomization code. […]

CETP [2] = molecular target: T1, CETP (Homo sapiens, UniProt P11597); test: Clinical repeated dose study: plasma CETP activity; format: in vivo; conditions: for Maximum % change from baseline in CETP activity: repeated oral doses, steady state, mean
T1 construct: from tissue; host or cells: plasma of Caucasian male subjects dosed with Compound A or placebo
T1 sequence (P11597 18-493): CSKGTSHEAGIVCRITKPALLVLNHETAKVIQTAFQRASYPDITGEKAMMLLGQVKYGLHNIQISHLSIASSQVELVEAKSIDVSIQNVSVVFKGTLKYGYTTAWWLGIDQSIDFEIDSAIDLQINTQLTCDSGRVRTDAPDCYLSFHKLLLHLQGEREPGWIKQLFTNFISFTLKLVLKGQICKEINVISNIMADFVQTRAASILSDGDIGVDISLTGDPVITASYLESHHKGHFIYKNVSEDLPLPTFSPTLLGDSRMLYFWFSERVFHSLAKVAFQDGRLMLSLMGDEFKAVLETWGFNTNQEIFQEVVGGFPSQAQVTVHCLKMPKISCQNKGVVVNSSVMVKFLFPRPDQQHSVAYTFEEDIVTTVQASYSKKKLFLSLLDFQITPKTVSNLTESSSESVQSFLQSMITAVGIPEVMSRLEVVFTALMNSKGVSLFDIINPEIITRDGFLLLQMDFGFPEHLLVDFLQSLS
Procedure: as §1, §2, §3

CETP [3] = test: Clinical repeated dose study: plasma CETP concentration (ELISA); format: in vivo, human; conditions: for Maximum % change from baseline in CETP concentration: repeated oral doses, steady state, mean
Procedure: as §1, §2, §3

[4] = Clinical repeated dose study: pharmacokinetics (LC/MS/MS plasma concentrations); format: in vivo, human
Procedure: as §1, §2, §3

[5] = Clinical repeated dose study: safety assessments; format: in vivo, human; conditions: repeated doses up 25 mg once daily
Procedure: as §1

[6] = steady state, for a 25-fold increase in dose

Structure (SMILES): CCOC(=O)N1c2ccc(C(F)(F)F)cc2[C@@H](N(Cc2cc(C(F)(F)F)cc(C(F)(F)F)c2)c2ncc(OCCCC(=O)O)cn2)C[C@H]1CC [Compound A, {4-[(2-{[3,5-bis(trifluoromethyl)benzyl][(2R,4S)-1-(ethoxycarbonyl)-2-ethyl-6-(trifluoromethyl)-1,2,3,4-tetrahydroquinolin-4-yl]amino}pyrimidin-5-yl)oxy]butanoic acid}]
- Maximum % change from baseline in HDL-C concentration ([1]; 1 mg once daily): 37.9%
- Maximum % change from baseline in LDL-C concentration ([1]; 1 mg once daily): −29.6%
- Maximum % change from baseline in Total cholesterol ([1]; 1 mg once daily): −12.7%
- Maximum % change from baseline in Triglycerides ([1]; 1 mg once daily): −50.2%
- Maximum % change from baseline in HDL-C concentration ([1]; 2.5 mg once daily): 95.6%
- Maximum % change from baseline in LDL-C concentration ([1]; 2.5 mg once daily): −39.1%
- Maximum % change from baseline in Total cholesterol ([1]; 2.5 mg once daily): −7.9%
- Maximum % change from baseline in Triglycerides ([1]; 2.5 mg once daily): −45.8%
- Maximum % change from baseline in HDL-C concentration ([1]; 5 mg once daily): 118%
- Maximum % change from baseline in LDL-C concentration ([1]; 5 mg once daily): −41.7%
- Maximum % change from baseline in Total cholesterol ([1]; 5 mg once daily): −1.4%
- Maximum % change from baseline in Triglycerides ([1]; 5 mg once daily): −20.3%
- Maximum % change from baseline in HDL-C concentration ([1]; 10 mg once daily): 140%
- Maximum % change from baseline in LDL-C concentration ([1]; 10 mg once daily): −43.6%
- Maximum % change from baseline in Total cholesterol ([1]; 10 mg once daily): 3.7%
- Maximum % change from baseline in Triglycerides ([1]; 10 mg once daily): −22.2%
- Maximum % change from baseline in HDL-C concentration ([1]; 25 mg once daily): 136%
- Maximum % change from baseline in LDL-C concentration ([1]; 25 mg once daily): −53.2%
- Maximum % change from baseline in Total cholesterol ([1]; 25 mg once daily): 7.5%
- Maximum % change from baseline in Triglycerides ([1]; 25 mg once daily): −31.4%
- changes in LDL particle size ([1]; repeated doses 1 to 25 mg): no noteworthy changes
- Maximum % change from baseline in CETP activity (CETP [2]; 1 mg once daily, Caucasian male healthy subjects): −66.5%
- Maximum % change from baseline in CETP activity (CETP [2]; 2.5 mg once daily): −91.6%
- Maximum % change from baseline in CETP activity (CETP [2]; 5 mg once daily): −90.9%
- Maximum % change from baseline in CETP activity (CETP [2]; 10 mg once daily): −97.6%
- Maximum % change from baseline in CETP activity (CETP [2]; 25 mg once daily): −99.4%
- CETP activity below baseline after last dose (CETP [2]; 2 weeks following 10 and 25 mg dosing): approximately 50%
- CETP activity after the last dose (in words) (CETP [2]; by 2 weeks following the lowest dose (1 mg)): approaching baseline levels
- time to maximum effect on CETP inhibition (CETP [2]; once daily dosing, each dose): ≤ 1 week
- CETP inhibition (in words) (CETP [2]; repeated once daily dosages as low as 2.5 mg): near complete CETP-inhibition
- Maximum % change from baseline in CETP concentration (CETP [3]; 1 mg once daily): 128%
- Maximum % change from baseline in CETP concentration (CETP [3]; 2.5 mg once daily): 144%
- Maximum % change from baseline in CETP concentration (CETP [3]; 5 mg once daily): 215%
- Maximum % change from baseline in CETP concentration (CETP [3]; 10 mg once daily): 249%
- Maximum % change from baseline in CETP concentration (CETP [3]; 25 mg once daily): 280%
- CETP concentration higher than baseline after cessation of dosing (CETP [3]; 2 weeks following 10 mg and 25 mg): approximately 1.4 fold
- CETP concentration after cessation of dosing (in words) (CETP [3]; within 2 weeks following 1 mg and 5 mg): approaching baseline values
- accumulation with once daily dosing ([4]; 1 mg): approximately 6 fold
- accumulation with once daily dosing ([4]; 25 mg): 2 fold
- residual effects on cessation of dosing ([4]; at the claimed dose (1 to 25 mg per day)): does not show prolonged residual effects
- food effects ([4]; clinical studies): does not suffer from food effects
- half-life ([4]; male, human, plasma, oral, following the last dose, independent of dose, read-out: mean terminal half-life): 121 to 151 h
- Tmax ([4]; male, human, plasma, oral, post-dose, independent of dose, 1 to 25 mg, read-out: Tmax (median)): 4 to 6 h
- CVs for Cmax, Cmin and AUC parameters ([4]; single and multiple dosing): ≤ 33%
- increase of plasma concentrations with dose ([4]; single doses from 1 to 25 mg): approximately proportionally to dose
- increase in AUC0-tau,ss [4, 6]: 9 fold
- increase in Cmax,ss [4, 6]: 12 fold
- increase in Cmin,ss [4, 6]: 7 fold
- effect on serum electrolyte or aldosterone concentrations [5]: no effect
- effects on blood pressure or heart rate, ECG variables, physical examination or laboratory safety tests [5]: no clinically significant effects
- serious adverse events [5]: no serious adverse events
- tolerability [5]: well tolerated
